In data set [1] the test system is human scalp hair follicles. In words: Hair shaft elongation in human hair follicle organ culture (Philpott model). The data set is classed as cell-based. How it is done: (§1) Normal human scalp skin was obtained from women undergoing routine face-lift surgery after informed consent.
(§2) Mircodissected anagen VI hair follicles in 3 or 4 groups (3 HFs/well) were cultured at 6 days in a 24-well plate with 500 μl Williams E medium (Biochrom) supplemented with 100 IU/ml penicillin, 10 μg/ml streptomycin (Gibco), 10 μg/ml insulin (Sigma), 10 ng/ml hydrocortisone (Sigma) and 2 mmol/1 L-glutamine (Invitrogen).
Hair shaft length measurements of HFs were performed every second day on individual HFs using a Zeiss inverted binocular microscope with an eyepiece measuring graticule.

Data set [2] deals with human scalp hair follicles. Put plainly: HF cycle staging in human hair follicle organ culture. The format is cell-based. The settings on record: for hair cycle staging, macroscopic and microscopic, overall comparison: summary of the examples. How it is done: as §1
(§3) Test system: Philpott model (Philpott et al., J. Cell. Mol. Life Sci., 1990, 97: 463-471)
as §2
(§4) Eprotirome, TRIAC, PF-277343 (1 pM, 100 pM) or vehicle were administered once for each change of medium (i.e. every 48 h).
(§5) Anagen HFs and HFs were immediately embedded in Shandon Cryomatrix and snap frozen in liquid nitrogen. Six longitudinal sections of HFs were processed for immunohistological stainings.
HF cycle staging was carried out according to defined morphological criteria, and the percentage of HFs in anagen and early, mid, or late catagen was determined.

In data set [3] the test system is human scalp hair follicles. Put plainly: Hair pigmentation, quantitative Masson-Fontana melanin staining of cultured hair follicles. The following applies: for melanin content, overall comparison: summary of the examples. The format is cell-based. How it is done: as §1, §3, §2, §4, §5
For histochemical visualization of melanin, Masson-Fontana staining was performed on frozen sections. Melanin was stained as brown dots and the degree of pigmentation was assessed by quantitative Masson-Fontana as described (Ito et al., Br. J. Dermatol, 2005, 152: 623-631). This method is a very sensitive and reliable indicator of changes in melanin synthesis, as shown by standard tyrosinase expression and enzyme activity assays (Kauser et al, FASEB J. 2006, 20:882-95). Staining intensity was analyzed in a defined reference region of the HF pigmentary unit and, using the ImageJ software (National Institute of Health).

The test system of data set [4] is tyrosinase activity of hair follicles. Put plainly: Tyrosinase activity of cultured hair follicles. The format is cell-based, human. The protocol: as §1, §3, §2, §4, §5
Data set [5] has as its system hair matrix keratinocytes. In words: Ki-67/TUNEL double staining, proliferation and apoptosis measurements. The format is cell-based, human. The protocol: as §1, §2, §5
To evaluate apoptotic cells in co-localization with a proliferation marker Ki-67, a Ki-67/terminal dUTP nick-end labelling (TUNEL) double-staining method was used. […] TUNEL-positive cells were visualized by an antidigoxigenin fluorescein isothiocyanate-conjugated antibody (ApopTag kit), whereas Ki-67 was detected by a rhodamine-labelled goat antimouse antibody (Jackson ImmunoResearch, West Grove, Pa.). Negative controls were performed by omitting terminal deoxynucleotidyl transferase and the Ki-67 antibody. Counterstaining was performed with 4′,6-diamidino-2-phenylindole (DAPI) (Roche Molecular Biochemicals GmbH, Mannheim, Germany). Quantitative immunohistomorphometry was performed; Ki-67-, TUNEL-, or DAPI-positive cells were counted in a previously defined reference region of the HF matrix and epidermis, and the percentage of Ki-67/TUNEL-positive cells was determined.

In data set [6] the test system is MTCO1. Put plainly: MTCO1 protein expression (immunoreactivity) in cultured hair follicles. The format is cell-based, human. How it is done:
as §1, §3, §2, §4, §5

In data set [7] the test system is TGFβ2. Put plainly: TGFβ2 immunoreactivity in cultured hair follicles. The data set is classed as cell-based, human. How it is done: as §1, §3, §2, §4, §5
Data set [8] has as its system hair growth. The following applies: mouse; cited from earlier work.
Data set [9] deals with hair growth. The settings on record: monkey; cited from earlier work.
Data set [10] relates to alopecia areata. The following applies: topical; cited from earlier work.
Data set [11] concerns outer root sheath cells, dermal papilla cells, and fibrous sheath cells of hair follicles. The settings on record: all these types of cells, significantly; cited from earlier work.
Data set [12] concerns human hair follicles. The settings on record: physiological level of free T3; cited from earlier work.
Data set [13] has as its system SKH-1 mice. The following applies: topical; cited from earlier work.
Data set [14] relates to CD rats. The settings on record: topical; cited from earlier work.
Data set [15] deals with human hair follicles. The following applies: cited from earlier work.
Data set [16] can be described thus: Stability. The format is physicochemical.
Data set [17] in a line: Penetration in human skin. The format is in vitro ADME.
The conditions of data set [18]: cited from earlier work.
Setting [19] is: occipital scalp HFs, person two, 6 days culture.
Where [20] appears, read: person two, after 6 days, macroscopically and microscopically.
Setting [21] is: person two, 100 pM, anagen HFs and all HFs.

Entries after “also recorded” stand apart in the source; their conditions may differ. Like-named read-outs stand apart in the source and are kept apart here.

Turning to `Cc1cc(-n2ncc(=O)[nH]c2=O)cc(C)c1Oc1ccc(O)c(Cc2ccc(F)cc2)c1` [PF-277343], the hair shaft elongation result in data set [1] (occipital scalp HFs, person three, 1 pM) is “slight (not significant) tendency towards inhibition”. In [1] (summary of the examples), the “hair shaft elongation, overall comparison” value is given as “tendency of a slight inhibition”. Also, in data set [2] (person three, 1 pM), the “macroscopic HF assessment (hair cycle staging)” value is “prematurely induces catagen”. Further, in data set [2] (person three, 1 pM and 100 pM), the “quantitative hair cycle histomorphometry” value was “promoted premature catagen development”. Moreover, the “hair cycle staging, macroscopic and microscopic, overall comparison” value (shortened to “hair cycle staging … overall comparison”) in [2] was “caused hair follicles to enter the catagen phase prematurely”. Besides, the melanisation result in [3] (person three, 1 pM and 100 pM, all HFs) was “significantly decreased”. Also, the melanin production entry in [3] (person three, 100 pM, only anagen HFs (significant)) is listed as “strong reduction”. Besides, in [3], the “melanin content, overall comparison” value is “decrease in melanin content”. Moreover, the tyrosinase activity entry in data set [4] (person three, 100 pM, anagen HFs and all HFs) was “slightly upregulated”. Besides, the “tyrosinase activity upregulation, significance” value in [4] (person three, 100 pM, only anagen HFs) is “significant”. In addition, the “proliferation (Ki-67) of hair matrix keratinocytes” value in [5] (person three) is recorded as “did not show effects”. The “apoptosis (TUNEL)” value in [5] (person three, 100 pM) is on record as “slightly inhibited (not significant)”. The MTCO1 protein expression result in [6] (person three) is listed as “no significant change”. In addition, the TGFβ2 immunoreactivity entry in [7] (person three, 100 pM concentration group) is reported as “significantly reduced”. In addition, the “efficacy in hair growth model” value in data set [8] and in data set [9] was “efficacious” each time.

In the case of `N[C@@H](Cc1cc(I)c(Oc2ccc(O)c(I)c2)c(I)c1)C(=O)O` [T3, 3,5,3′-triiodo-L-thyronine], in data set [10], the efficacy versus placebo result is reported as “not more effective than placebo” and the safety entry was “safe”. For the same compound, the “proliferation and/or metabolism of hair follicle cell types” value in data set [11] is “stimulated”. For the same compound, in [12], the “human hair survival in vitro” value was “significantly enhanced”. Also, in data set [13], the “epidermal proliferation, dermal thickening, and hair growth” value is listed as “stimulate”. Also, in data set [14], the “epidermal proliferation, dermal thickening, and hair growth” value was “stimulate”. Also, in [15], the anagen duration entry is recorded as “prolong”, the “apoptosis of hair matrix keratinocytes (Ki-67/TUNEL staining)” value was “inhibited”, the “hair shaft elongation in vitro” value is given as “did not translate to a significantly altered hair shaft elongation” and the “melanin synthesis in human hair follicles” value is listed as “stimulate”.

With `N[C@@H](Cc1cc(I)c(Oc2cc(I)c(O)c(I)c2)c(I)c1)C(=O)O` [T4, 3,5,3′,5′-tetraiodo-L-thyronine], in [15], the anagen duration entry was “prolong”, the “apoptosis of hair matrix keratinocytes (Ki-67/TUNEL staining)” value is listed as “inhibited”, the “hair matrix keratinocyte proliferation (Ki-67/TUNEL staining)” value is “stimulated” and the “hair shaft elongation in vitro” value is reported as “did not translate to a significantly altered hair shaft elongation”. Moreover, in [15], the “melanin synthesis in human hair follicles” value is on record as “stimulate”.

On to `O=C(O)Cc1cc(I)c(Oc2ccc(O)c(I)c2)c(I)c1` [TRIAC, Triiodothyroacetic Acid], for which, in data set [1] (occipital scalp HFs, person two, 1 pM), the “hair shaft elongation (inhibition), significance” value is given as “significant effect”. In addition, the hair shaft elongation result in data set [1] (setting [19]) is on record as “slight inhibition”. For the same compound, in data set [2] (setting [20]), the “anagen (prolongation)” value is on record as “prolonged anagen” and the catagen development entry is on record as “inhibited catagen development”. The “hair cycle staging … overall comparison” value in data set [2] is “able to prolong anagen and to inhibit catagen development”. In addition, in data set [3] (person two, all HFs), the “hair follicle melanin content” value is on record as “No significant effects”. In data set [3], the “melanin content, overall comparison” value was “no effects”. For the same compound, the tyrosinase activity entry in [4] (person two, all HFs) was “downregulated”. Further, the “tyrosinase activity downregulation, significance” value in [4] (person two, all HFs, 0.1 pM and 1 pM groups) is reported as “significant”. In data set [5] (person two), the “apoptosis (TUNEL)” value is on record as “inhibited (not significant)” and the “proliferation (Ki-67) of hair matrix keratinocytes” value is on record as “slightly upregulated (not significant)”. Further, in [6] (person two), the MTCO1 protein expression result was “no significant change”. Further, the “TGFβ2 immunoreactivity reduction, significance” value in data set [7] (person two, 1 pM and 100 pM concentration groups) is “significant effect”. For the same compound, in [7] (person two, all concentrations), the TGFβ2 immunoreactivity entry is given as “reduced”. Besides, the stability result in [16] is “low stability”. Moreover, in [17], the “penetration in human skin” value is given as “inferior penetration”.

In the case of `CC(C)c1cc(Oc2c(Br)cc(NC(=O)CC(=O)O)cc2Br)ccc1O` [eprotirome, 3-[[3,5-dibromo-4-[4-hydroxy-3-(1-methylethyl)phenoxy]phenyl]amino]-3-oxo-propanoic acid], the hair shaft elongation result in data set [1] (occipital scalp HFs, person one, both doses (1 pM, 100 pM)) was “slightly stimulated”. In addition, in data set [1] (setting [19]), the hair shaft elongation result is listed as “did not significantly affect”. Further, in data set [2] (person one), the “duration of anagen, macroscopically” value was “no major effect” and the hair cycle histomorphometry result was “clear anagen-prolonging effect”. In data set [2] (setting [20]), the “number of anagen HFs” value is recorded as “significantly increased” and the “number of catagen HFs” value is recorded as “decreased”. In [2], the “hair cycle staging … overall comparison” value is “able to prolong anagen and to inhibit catagen development; also recorded: clearly prolongs anagen”. For the same compound, in data set [3] (person one, 100 pM, anagen HFs and all HFs), the melanin content entry is “slightly increased”. In addition, in [3] (person one, 100 pM, only anagen HFs), the “melanin content increase, significance” value is given as “significant”. In addition, the melanisation result in data set [3] (setting [21]) is reported as “slightly increased”. Further, the “melanin content, overall comparison” value in data set [3] is recorded as “increased melanin content”. Further, the tyrosinase activity result in [4] (person one, 100 pM group) is on record as “upregulated”. For the same compound, the “tyrosinase activity upregulation, significance” value in data set [4] (person one, 100 pM, all HFs) is on record as “significant”. The tyrosinase activity result in [4] (setting [21]) is “slightly upregulated”. The “tyrosinase activity, overall” value in data set [4] (summary of the examples) is “upregulation”. The “proliferation of the hair matrix keratinocytes (Ki-67)” value in data set [5] (person one, 100 pM) is “increased proliferation”. In addition, in data set [5] (person two), the “apoptosis (TUNEL)” value is “no change” and the “proliferation (Ki-67) of hair matrix keratinocytes” value is “tendentially upregulated”. Also, the “proliferation of hair matrix keratinocytes, overall” value in data set [5] (summary of the examples) is reported as “increased proliferation”. In addition, the MTCO1 immunoreactivity entry in data set [6] (person one) is on record as “significantly up-regulates”. Further, in [6] (person two), the MTCO1 protein expression entry is listed as “no significant change”. Moreover, the TGFβ2 immunoreactivity entry in data set [7] (person one) is on record as “significantly reduced”. Also, the “TGFβ2 immunoreactivity reduction, concentration dependence” value in [7] (person one, 100 pM) is “strongest effect”. Moreover, the TGFβ2 immunoreactivity result in data set [7] (person two, 1 pM concentration group) is “significantly reduced”. Further, in data set [7] (summary of the examples), the “expression of TGFβ2, overall” value was “significant reduced expression”. In data set [18] (clinical trial in humans), the “effects on the heart” value is on record as “did not provoke detectable effects”; the safety and tolerability entry was “safe and well tolerated”. Moreover, the “lowering of total and LDL cholesterol levels” value in data set [18] (moderately overweight and hypercholesterolemic subjects) is listed as “up to 40%”.

The values above are taken from US20150182482A1, “EPROTIROME FOR USE IN THE PREVENTION AND/OR TREATMENT OF HAIR DISORDERS AND COMPOSITIONS THEREOF” (DR. AUGUST WOLFF GMBH & CO. KG ARZNEIMITTEL, priority 2012, published 2015).
